The target of this test is T1, β-catenin/BCL9 PPI (Homo sapiens, UniProt P35222).
T1 construct: Full-length β-catenin (residues 1-781) were cloned into a pET-28b vector; made in house; host or cells: E. coli BL21 DE3 (β-catenin); BCL9 peptide synthesized by InnoPep Inc
T1 sequence (P35222 1-781): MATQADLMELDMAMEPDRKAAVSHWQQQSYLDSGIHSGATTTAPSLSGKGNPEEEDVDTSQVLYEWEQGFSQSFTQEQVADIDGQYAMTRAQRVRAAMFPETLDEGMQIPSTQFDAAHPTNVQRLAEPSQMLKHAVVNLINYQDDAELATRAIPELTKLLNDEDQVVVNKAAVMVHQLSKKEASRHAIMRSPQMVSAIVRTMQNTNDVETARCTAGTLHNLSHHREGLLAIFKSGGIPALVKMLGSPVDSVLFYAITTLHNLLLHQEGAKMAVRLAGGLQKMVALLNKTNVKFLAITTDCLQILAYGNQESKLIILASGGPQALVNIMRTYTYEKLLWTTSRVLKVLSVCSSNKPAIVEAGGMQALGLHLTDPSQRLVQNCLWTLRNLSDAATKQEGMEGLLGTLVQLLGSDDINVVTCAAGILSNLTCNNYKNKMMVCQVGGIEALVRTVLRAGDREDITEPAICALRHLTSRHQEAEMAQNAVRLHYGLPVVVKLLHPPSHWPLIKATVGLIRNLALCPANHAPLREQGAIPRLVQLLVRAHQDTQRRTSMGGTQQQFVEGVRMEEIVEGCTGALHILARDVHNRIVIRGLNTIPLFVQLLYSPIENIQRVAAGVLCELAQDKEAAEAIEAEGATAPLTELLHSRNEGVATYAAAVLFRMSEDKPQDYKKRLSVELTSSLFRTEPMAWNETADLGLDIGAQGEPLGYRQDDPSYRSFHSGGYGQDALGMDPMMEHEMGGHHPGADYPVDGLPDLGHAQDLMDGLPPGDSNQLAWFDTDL
The experiment in a line: AlphaScreen competitive inhibition assay of the β-catenin/BCL9 PPI. It counts as binding. Here is the method:
AlphaScreen Assays of β-Catenin and BCL9 Interaction. Experiments were performed in white opaque 384-well plates from PerkinElmer (Waltham, Mass.), and the samples were read on a Synergy 2 plate reader (Biotek, Winooski, Vt.) with excitation at 680 nm and emission at 570 nm. The standard AlphaScreen protocol was used with a sensitivity setting of 200. All dilutions were made in 1× assay buffer containing 25 mM Hepes (pH 7.4), 100 mM NaCl, 0.01% Triton X-100 and 0.1% BSA to minimize nonspecific interactions.
For the β-catenin/BCL9 assay, 5 nM biotinylated BCL9 and 40 nM His6-tagged β-catenin were incubated in assay buffer at 4° C. for 30 min. For the β-catenin/E-cadherin assay, 10 nM biotinylated human E-cadherin, and 40 nM His6-tagged human β-catenin were added and incubated in assay buffer at 4° C. for 30 min. Different concentrations of the tested inhibitor were added and incubated in 20 μL assay buffer at 4° C. for another 1 h. All of the assay plates were covered and gently mixed on an orbital shaker. The donor and acceptor beads were then added to the plates to a final concentration of 10 μg/mL in […]. The mixture was incubated for 1 h at 4° C. before detection. The IC50 value was determined by nonlinear least-square analysis of GraphPad Prism 5.0. […] All of the experiments were performed in triplicate and carried out in the presence of 1% DMSO for small-molecule inhibitors. Each compound was assayed at least by two independent experiments. The results were expressed as mean±standard deviation. The inhibitor selectivity for β-catenin/BCL9 over β-catenin/E-canderin interactions was defined as the ratio of the respective Ki value of β-catenin/E-cadherin interactions over that of β-catenin/BCL9 interactions.

The mark [1] stands for this setting: Table 9, inhibitors 93-98, racemic, read-out: Ki.
The mark [2] stands for this setting: Table 10, inhibitors 99-106, racemic, read-out: Ki ± SD.
[3] abbreviates: Table 1, inhibitors 1-14, read-out: Ki.

Read-outs that look alike come from different tables or passages of the source.

For `CC(C)c1ccc(CNC(=O)C2CCCN(c3cccc(OC(C)(C)C(=O)O)c3)C2)cc1` (racemic) [Compound 93, 2-(3-(3-((4-isopropylbenzyl)carbamoyl)piperidin-1-yl)phenoxy)-2-methylpropanoic acid], under setting [1], the Ki is at most 90 µM.
With `CC(C)c1ccc(CN(C)C(=O)C2CCCN(c3cccc(OC(C)(C)C(=O)O)c3)C2)cc1` (racemic) [Compound 95, 2-(3-(3-((4-isopropylbenzyl)(methyl)carbamoyl)piperidin-1-yl)phenoxy)-2-methylpropanoic acid], the Ki under setting [1] is at most 90 µM.
With `CC(C)c1ccc(CN(C(=O)C2CCCN(c3cccc(OC(C)(C)C(=O)O)c3)C2)C(C)C)cc1` (racemic) [Compound 97, 2-(3-(3-(isopropyl(4-isopropylbenzyl)carbamoyl)piperidin-1-yl)phenoxy)-2-methylpropanoic acid], the Ki under setting [1] is at most 90 µM.
`CC(C)(Oc1cccc(N2CCCC(C(=O)N(Cc3ccc(-c4cn[nH]c4)cc3)C3CC3)C2)c1)C(=O)O` (racemic) [Compound 99, 2-(3-(3-((4-(1H-pyrazol-4-yl)benzyl)(cyclopropyl)carbamoyl)piperidin-1-yl)phenoxy)-2-methylpropanoic acid]: the Ki under setting [2] was above 90 µM.
The same measure, in the same setting: for `Cn1cc(-c2ccc(CN(C(=O)C3CCCN(c4cccc(OC(C)(C)C(=O)O)c4)C3)C3CC3)cc2)cn1` (racemic) [Compound 100, 2-(3-(3-(cyclopropyl(4-(1-methyl-1H-pyrazol-4-yl)benzyl)carbamoyl)piperidin-1-yl)phenoxy)-2-methylpropanoic acid] the value was above 90 µM; for `CC(C)(Oc1cccc(N2CCCC(C(=O)N(Cc3ccc(-c4ccn[nH]4)cc3)C3CC3)C2)c1)C(=O)O` (racemic) [Compound 101, 2-(3-(3-((4-(1H-pyrazol-5-yl)benzyl)(cyclopropyl)carbamoyl)piperidin-1-yl)phenoxy)-2-methylpropanoic acid], at most 90 µM; for `Cn1nccc1-c1ccc(CN(C(=O)C2CCCN(c3cccc(OC(C)(C)C(=O)O)c3)C2)C2CC2)cc1` (racemic) [Compound 102, 2-(3-(3-(cyclopropyl(4-(1-methyl-1H-pyrazol-5-yl)benzyl)carbamoyl)piperidin-1-yl)phenoxy)-2-methylpropanoic acid], above 90 µM.
For the compound `CC(C)(Oc1cccc(N2CCCC(C(=O)N(Cc3ccc(-c4cccs4)cc3)C3CC3)C2)c1)C(=O)O` (racemic) [Compound 103, 2-(3-(3-(cyclopropyl(4-(thiophen-2-yl)benzyl)carbamoyl)piperidin-1-yl)phenoxy)-2-methylpropanoic acid], under setting [2], the Ki is at most 30 µM.
Still for that read-out and setting: the figure for `CC(C)(Oc1cccc(N2CCCC(C(=O)N(Cc3ccc(-c4ccsc4)cc3)C3CC3)C2)c1)C(=O)O` (racemic) [Compound 104, 2-(3-(3-(cyclopropyl(4-(thiophen-3-yl)benzyl)carbamoyl)piperidin-1-yl)phenoxy)-2-methylpropanoic acid] is at most 30 µM; for `CC(C)(Oc1cccc(N2CCCC(C(=O)N(Cc3ccc(-c4ccco4)cc3)C3CC3)C2)c1)C(=O)O` (racemic) [Compound 105, 2-(3-(3-(cyclopropyl(4-(furan-2-yl)benzyl)carbamoyl)piperidin-1-yl)phenoxy)-2-methylpropanoic acid] it is at most 90 µM; for `CC(C)(Oc1cccc(N2CCCC(C(=O)N(Cc3ccc(-c4ccoc4)cc3)C3CC3)C2)c1)C(=O)O` (racemic) [Compound 106, 2-(3-(3-(cyclopropyl(4-(furan-3-yl)benzyl)carbamoyl)piperidin-1-yl)phenoxy)-2-methylpropanoic acid] it is above 90 µM.
As for `COC(=O)C(C)(C)Oc1cccc(N2CCCC(C(=O)N(Cc3ccc(-c4cccs4)cc3)C3CC3)C2)c1` (racemic) [Compound 107, methyl 2-(3-(3-(cyclopropyl(4-(thiophen-2-yl)benzyl)carbamoyl)piperidin-1-yl)phenoxy)-2-methylpropanoate], the Ki (Table 11, inhibitors 107-108, racemic, read-out: Ki ± SD) is above 90 µM.
Consider `CC(C)c1ccc(COC(=O)[C@@H]2CCCN(c3cccc(OC(C)(C)C(=O)O)c3)C2)cc1` [Compound 1, (R)-2-(3-(3-(((4-isopropylbenzyl)oxy)carbonyl)piperidin-1-yl)phenoxy)-2-methylpropanoic acid], for which the Ki under setting [3] was above 90 µM.
Still for that read-out and setting: for `CC(C)c1ccc(COC(=O)[C@H]2CCCN(c3cccc(OC(C)(C)C(=O)O)c3)C2)cc1` [Compound 2, (S)-2-(3-(3-(((4-isopropylbenzyl)oxy)carbonyl)piperidin-1-yl)phenoxy)-2-methylpropanoic acid] the value was above 90 µM; for `CC(C)c1ccc(CNC(=O)[C@@H]2CCCN(c3cccc(OC(C)(C)C(=O)O)c3)C2)cc1` [Compound 3, (R)-2-(3-(3-((4-isopropylbenzyl)carbamoyl)piperidin-1-yl)phenoxy)-2-methylpropanoic acid], at most 50 µM.
Take `CC(C)c1ccc(CNC(=O)[C@H]2CCCN(c3cccc(OC(C)(C)C(=O)O)c3)C2)cc1` [Compound 4, (S)-2-(3-(3-((4-isopropylbenzyl)carbamoyl)piperidin-1-yl)phenoxy)-2-methylpropanoic acid]: the Ki under setting [3] was above 90 µM.
On the same count and under the same terms, the figure for `CC(C)c1ccc(CN(C)C(=O)[C@@H]2CCCN(c3cccc(OC(C)(C)C(=O)O)c3)C2)cc1` [Compound 5, (R)-2-(3-(3-((4-isopropylbenzyl)(methyl)carbamoyl)piperidin-1-yl)phenoxy)-2-methylpropanoic acid] is below 50 µM; for `CCN(Cc1ccc(C(C)C)cc1)C(=O)[C@@H]1CCCN(c2cccc(OC(C)(C)C(=O)O)c2)C1` [Compound 7, (R)-2-(3-(3-(ethyl(4-isopropylbenzyl)carbamoyl)piperidin-1-yl)phenoxy)-2-methylpropanoic acid] it is above 90 µM.
On the same count and under the same terms, the figure for `CCN(Cc1ccc(C(C)C)cc1)C(=O)[C@H]1CCCN(c2cccc(OC(C)(C)C(=O)O)c2)C1` [Compound 8, (S)-2-(3-(3-(ethyl(4-isopropylbenzyl)carbamoyl)piperidin-1-yl)phenoxy)-2-methylpropanoic acid] is above 90 µM.
`CC(C)c1ccc(CN(C(=O)[C@@H]2CCCN(c3cccc(OC(C)(C)C(=O)O)c3)C2)C(C)C)cc1` [Compound 9, (R)-2-(3-(3-(isopropyl(4-isopropylbenzyl)carbamoyl)piperidin-1-yl)phenoxy)-2-methylpropanoic acid]: the Ki under setting [3] was above 90 µM.
`CC(C)c1ccc(CN(C(=O)[C@H]2CCCN(c3cccc(OC(C)(C)C(=O)O)c3)C2)C(C)C)cc1` [Compound 10, (S)-2-(3-(3-(isopropyl(4-isopropylbenzyl)carbamoyl)piperidin-1-yl)phenoxy)-2-methylpropanoic acid]: the Ki under setting [3] was at most 50 µM.
Turning to `CC(C)c1ccc(CN(C(=O)[C@@H]2CCCN(c3cccc(OC(C)(C)C(=O)O)c3)C2)C2CC2)cc1` [Compound 11, (R)-2-(3-(3-(cyclopropyl(4-isopropylbenzyl)carbamoyl)piperidin-1-yl)phenoxy)-2-methylpropanoic acid], the Ki under setting [3] is at most 50 µM.
Regarding `CC(C)c1ccc(CN(C(=O)[C@H]2CCCN(c3cccc(OC(C)(C)C(=O)O)c3)C2)C2CC2)cc1` [Compound 12, (S)-2-(3-(3-(cyclopropyl(4-isopropylbenzyl)carbamoyl)piperidin-1-yl)phenoxy)-2-methylpropanoic acid], the Ki under setting [3] was above 90 µM.
In the case of `CC(C)c1ccc(CCNC(=O)[C@@H]2CCCN(c3cccc(OC(C)(C)C(=O)O)c3)C2)cc1` [Compound 13, (R)-2-(3-(3-((4-isopropylphenethyl)carbamoyl)piperidin-1-yl)phenoxy)-2-methylpropanoic acid], the Ki under setting [3] is at most 50 µM.

For the origin of these results see patent US20220411372A1, “SMALL-MOLECULE INHIBITORS FOR THE B-CATENIN/B-CELL LYMPHOMA 9 PROTEIN-PROTEIN INTERACTION” (H. Lee Moffitt Cancer Center and Research Institute, Inc., priority 2019, published 2022).
